Tested on: 217524-143-R1-J4-PDC spheroids with HUVEC/MSC, viability
Assay: Anticancer human tumor 217524-143-R1-J4-PDC patient-derived pancreatic carcinoma cell line growth inhibition [CLK]
Details: for IC50: curve of first compound; for viability, T/C: stronger effect = lower value
Summary of the method: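 Multi-cell-type spheroids combined patient-derived tumor cells with HUVEC endothelial cells and human mesenchymal stem cells. Paired agents were dosed in half-log steps down from about clinical Cmax, or from 10 microM where Cmax was unknown.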

[1] = second compound 0.0316 µM, first compound 0.0316 µM
[2] = second compound 0.0316 µM, first compound 0.1 µM
[3] = second compound 0.0316 µM, first compound 0.316 µM
[4] = second compound 0.0316 µM, first compound 1 µM
[5] = second compound 0.0316 µM, first compound 3.16 µM
[6] = second compound 0.0316 µM, first compound 10 µM
[7] = second compound 0.1 µM, first compound 0.0316 µM
[8] = second compound 0.1 µM, first compound 0.1 µM
[9] = second compound 0.1 µM, first compound 0.316 µM
[10] = second compound 0.1 µM, first compound 1 µM
[11] = second compound 0.1 µM, first compound 3.16 µM
[12] = second compound 0.1 µM, first compound 10 µM
[13] = second compound 0.316 µM, first compound 0.0316 µM
[14] = second compound 0.316 µM, first compound 0.1 µM
[15] = second compound 0.316 µM, first compound 0.316 µM
[16] = second compound 0.316 µM, first compound 1 µM
[17] = second compound 0.316 µM, first compound 3.16 µM
[18] = second compound 0.316 µM, first compound 10 µM
[19] = second compound 1 µM, first compound 0.0316 µM
[20] = second compound 1 µM, first compound 0.1 µM
[21] = second compound 1 µM, first compound 0.316 µM
[22] = second compound 1 µM, first compound 1 µM
[23] = second compound 1 µM, first compound 3.16 µM
[24] = second compound 1 µM, first compound 10 µM
[25] = second compound 3.16 µM, first compound 0.0316 µM
[26] = second compound 3.16 µM, first compound 0.1 µM
[27] = second compound 3.16 µM, first compound 0.316 µM
[28] = second compound 3.16 µM, first compound 1 µM
[29] = second compound 3.16 µM, first compound 3.16 µM
[30] = second compound 3.16 µM, first compound 10 µM
[31] = second compound 10 µM, first compound 0.0316 µM
[32] = second compound 10 µM, first compound 0.1 µM
[33] = second compound 10 µM, first compound 0.316 µM
[34] = second compound 10 µM, first compound 1 µM
[35] = second compound 10 µM, first compound 3.16 µM
[36] = second compound 10 µM, first compound 10 µM
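Note: spheroids exposed to agents for seven days before reading.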
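Throughout, for viability, T/C: 100% = DMSO vehicle control viability.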

Structure (SMILES): COC1C=CCC(C)C(C)S(=O)(=O)NC(=O)c2ccc3c(c2)N(CC2CCC21)CC1(CCCc2cc(Cl)ccc21)CO3 (centres undefined) + CN1CCN(c2cc(C(=O)Nc3cc4cc(-c5cnn(C)c5)ccc4cn3)ccn2)CC1
- IC50 (second compound 0.0316 µM): 6400 nM
- IC50 (second compound 0.1 µM): 4170 nM
- IC50 (second compound 0.316 µM): < 31.6 nM
- IC50 (second compound 1 µM): < 31.6 nM
- IC50 (second compound 3.16 µM): < 31.6 nM
- IC50 (second compound 10 µM): < 31.6 nM
- viability, T/C [1]: 90.2%
- viability, T/C [2]: 93.2%
- viability, T/C [3]: 75%
- viability, T/C [4]: 91.2%
- viability, T/C [5]: 107%
- viability, T/C [6]: 23.8%
- viability, T/C [7]: 65.7%
- viability, T/C [8]: 67.5%
- viability, T/C [9]: 56%
- viability, T/C [10]: 61.4%
- viability, T/C [11]: 58.5%
- viability, T/C [12]: 24.5%
- viability, T/C [13]: 23.9%
- viability, T/C [14]: 23.3%
- viability, T/C [15]: 23.3%
- viability, T/C [16]: 22.9%
- viability, T/C [17]: 27%
- viability, T/C [18]: 16.6%
- viability, T/C [19]: 2.49%
- viability, T/C [20]: 1.84%
- viability, T/C [21]: 1.71%
- viability, T/C [22]: 1.6%
- viability, T/C [23]: 1.08%
- viability, T/C [24]: 1.77%
- viability, T/C [25]: 0.91%
- viability, T/C [26]: 1.31%
- viability, T/C [27]: 0.81%
- viability, T/C [28]: 1%
- viability, T/C [29]: 1.26%
- viability, T/C [30]: 0.8%
- viability, T/C [31]: 1.26%
- viability, T/C [32]: 0.35%
- viability, T/C [33]: 0.37%
- viability, T/C [34]: 0.37%
- viability, T/C [35]: 0.36%
- viability, T/C [36]: 1.06%

Structure (SMILES): COc1cccc2c1C(=O)c1c(O)c3c(c(O)c1C2=O)CC(O)(C(=O)CO)CC3OC1CC(N)C(O)C(C)O1 (centres undefined) + CNC(=O)c1ccc(Nc2nc(OC3CCCC3)c3c(-c4ccc5nc(C)oc5c4)c[nH]c3n2)c(OC)c1
- IC50 (second compound 0.0316 µM): < 31.6 nM
- IC50 (second compound 0.1 µM): < 31.6 nM
- IC50 (second compound 0.316 µM): < 31.6 nM
- IC50 (second compound 1 µM): < 31.6 nM
- IC50 (second compound 3.16 µM): < 31.6 nM
- IC50 (second compound 10 µM): < 31.6 nM
- viability, T/C [1]: 32.9%
- viability, T/C [2]: 32.3%
- viability, T/C [3]: 25.3%
- viability, T/C [4]: 17.2%
- viability, T/C [5]: 3.45%
- viability, T/C [6]: 0.92%
- viability, T/C [7]: 38.2%
- viability, T/C [8]: 33.7%
- viability, T/C [9]: 23%
- viability, T/C [10]: 18.9%
- viability, T/C [11]: 2.48%
- viability, T/C [12]: 1.28%
- viability, T/C [13]: 32.2%
- viability, T/C [14]: 28.5%
- viability, T/C [15]: 16.5%
- viability, T/C [16]: 12.8%
- viability, T/C [17]: 2.83%
- viability, T/C [18]: 0.97%
- viability, T/C [19]: 25.2%
- viability, T/C [20]: 18.7%
- viability, T/C [21]: 11.8%
- viability, T/C [22]: 7.57%
- viability, T/C [23]: 1.43%
- viability, T/C [24]: 0.99%
- viability, T/C [25]: 18.7%
- viability, T/C [26]: 16%
- viability, T/C [27]: 13%
- viability, T/C [28]: 6.9%
- viability, T/C [29]: 0.62%
- viability, T/C [30]: 1.17%
- viability, T/C [31]: 22.2%
- viability, T/C [32]: 14.7%
- viability, T/C [33]: 10.7%
- viability, T/C [34]: 6.9%
- viability, T/C [35]: 0.98%
- viability, T/C [36]: 1.5%

— PubChem BioAssay AID2060624 (Molecular Pharmacology Branch, DTP, NCI, 2025)
